# According to patent US20240360114A1 (SIRONAX LTD., priority 2021, published 2024):
# Tested on: HT-1080 cells
# Test: HT-1080 cell viability assay (ferroptosis induced by RSL3, Cell Titer-Glo)
# Type: cell-based
# Conditions: Homo sapiens, HT-1080, 20 h, ferroptosis inducer RSL3, 20 hours, ferroptosis inhibitory activity, Table 2
# Outline: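 EC50 fitted by sigmoidal dose-response regression on luminescent viability data normalized to untreated cells. Compounds ran as a 10-point, 3-fold series from 1.1 μM alongside RSL3 for 20 hours, after overnight seeding.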
row,Structure (SMILES),EC50 [nM]
1,"NC1CCC(Nc2cnc(N3CC4(CCC4)C3)nc2)CC1 (stereo not shown) [Compound 47, N1-(2-(2-azaspiro[3.3]heptan-2-yl)pyrimidin-5-yl)cyclohexane-1,4-diamine]",100 to 1000
2,"CC(C)C1CCN(c2ncc(NC3CCC(CN)C3)cn2)CC1 (stereo not shown) [Compound 48, N-(3-(aminomethyl)cyclopentyl)-2-(4-isopropylpiperidin-1-yl)pyrimidin-5-amine]",0.1 to 100
3,"CC(C)C1CCN(c2ncc(NC3CC(CN)C3)cn2)CC1 (stereo not shown) [Compound 49, N-(3-(aminomethyl)cyclobutyl)-2-(4-isopropylpiperidin-1-yl)pyrimidin-5-amine]",0.1 to 100
4,"CC(C)C1CCN(c2ncc(NC3CCC(C)(N)CC3)cn2)CC1 (stereo not shown) [Compound 50, N1-(2-(4-isopropylpiperidin-1-yl)pyrimidin-5-yl)-4-methylcyclohexane-1,4-diamine]",0.1 to 100
5,"CC1(N)CCC(Nc2ccc(N3CCC(C(F)(F)F)CC3)cc2)CC1 (stereo not shown) [Compound 51, 1-methyl-N4-(4-(4-(trifluoromethyl)piperidin-1-yl)phenyl)cyclohexane-1,4-diamine]",0.1 to 100
6,"NC1CCC(Nc2cnc(N3CCC(C(F)(F)F)CC3)cn2)CC1 (stereo not shown) [Compound 52, N1-(5-(4-(trifluoromethyl)piperidin-1-yl)pyrazin-2-yl)cyclohexane-1,4-diamine]",0.1 to 100
7,"CC1CCN(c2ccc(NC3CCC(N)CC3)cc2C(F)(F)F)CC1 (stereo not shown) [Compound 53A, N1-(4-(4-methylpiperidin-1-yl)-3-(trifluoromethyl)phenyl)cyclohexane-1,4-diamine]",0.1 to 100
8,"NC1CCC(Nc2cc(F)c(N3CCC(C(F)(F)F)CC3)c(F)c2)CC1 (stereo not shown) [Compound 54A, N1-(3,5-difluoro-4-(4-(trifluoromethyl)piperidin-1-yl)phenyl)cyclohexane-1,4-diamine]",0.1 to 100
9,"CC1(C)CCN(c2ccc(NC3CCC(N)CC3)cc2C(F)(F)F)CC1 (stereo not shown) [Compound 55, N1-(4-(4,4-dimethylpiperidin-1-yl)-3-(trifluoromethyl)phenyl)cyclohexane-1,4-diamine]",0.1 to 100
10,"Cc1cc(N2CCC(C(F)(F)F)CC2)c(Cl)cc1NC1CCC(N)CC1 (stereo not shown) [Compound 56, N1-(5-chloro-2-methyl-4-(4-(trifluoromethyl)piperidin-1-yl)phenyl)cyclohexane-1,4-diamine]",0.1 to 100
11,"Cc1c(NC2CCC(N)CC2)ccc(N2CCC(C(F)(F)F)CC2)c1F (stereo not shown) [Compound 57, N1-(3-fluoro-2-methyl-4-(4-(trifluoromethyl)piperidin-1-yl)phenyl)cyclohexane-1,4-diamine]",0.1 to 100
12,"Cc1cc(N2CCC(C(F)(F)F)CC2)c(F)cc1NC1CCC(N)CC1 (stereo not shown) [Compound 58, N1-(5-fluoro-2-methyl-4-(4-(trifluoromethyl)piperidin-1-yl)phenyl)cyclohexane-1,4-diamine]",0.1 to 100
13,"Cc1cc(N2CCC(C(F)(F)F)CC2)c(C)cc1NC1CCC(N)CC1 (stereo not shown) [Compound 59, N1-(2,5-dimethyl-4-(4-(trifluoromethyl)piperidin-1-yl)phenyl)cyclohexane-1,4-diamine]",0.1 to 100
14,"CC1CCN(c2ccc(NC3CCC(N)CC3)cc2)CC1 (stereo not shown) [Compound 60, N1-(4-(4-methylpiperidin-1-yl)phenyl)cyclohexane-1,4-diamine]",0.1 to 100
15,"CCC1CCN(c2ccc(NC3CCC(N)CC3)cc2)CC1 (stereo not shown) [Compound 61, N1-(4-(4-ethylpiperidin-1-yl)phenyl)cyclohexane-1,4-diamine]",0.1 to 100
16,"CC1(C)CCN(c2ccc(NC3CCC(N)CC3)cc2)CC1 (stereo not shown) [Compound 62, N1-(4-(4,4-dimethylpiperidin-1-yl)phenyl)cyclohexane-1,4-diamine]",0.1 to 100
17,"CC(C)C1CCN(c2ccc(NC3CCC(N)CC3)cc2)CC1 (stereo not shown) [Compound 63, N1-(4-(4-isopropylpiperidin-1-yl)phenyl)cyclohexane-1,4-diamine]",0.1 to 100

row,Structure (SMILES),EC50 [nM]
1,"Cc1cc(NC2CCC(N)CC2)ccc1N1CCC(C(F)(F)F)CC1 (stereo not shown) [Compound 66, N1-(3-methyl-4-(4-(trifluoromethyl)piperidin-1-yl)phenyl)cyclohexane-1,4-diamine]",0.1 to 100
2,"NC1CCC(Nc2ccc(N3CCC(C(F)(F)F)CC3)c(Cl)c2)CC1 (stereo not shown) [Compound 67, N1-(3-chloro-4-(4-(trifluoromethyl)piperidin-1-yl)phenyl)cyclohexane-1,4-diamine]",0.1 to 100
3,"NC1CCC(Nc2ccc(N3CCC(C(F)(F)F)CC3)c(F)c2)CC1 (stereo not shown) [Compound 68, N1-(3-fluoro-4-(4-(trifluoromethyl)piperidin-1-yl)phenyl)cyclohexane-1,4-diamine]",0.1 to 100
4,"Cc1cc(N2CCC(C(F)(F)F)CC2)ccc1NC1CCC(N)CC1 (stereo not shown) [Compound 69, N1-(2-methyl-4-(4-(trifluoromethyl)piperidin-1-yl)phenyl)cyclohexane-1,4-diamine]",0.1 to 100
5,"NC1CCC(Nc2ccc(N3CCC(C(F)(F)F)CC3)cc2Cl)CC1 (stereo not shown) [Compound 70, N1-(2-chloro-4-(4-(trifluoromethyl)piperidin-1-yl)phenyl)cyclohexane-1,4-diamine]",0.1 to 100
6,"NC1CCC(Nc2ccc(N3CCC(C(F)(F)F)CC3)cc2F)CC1 (stereo not shown) [Compound 71, N1-(2-fluoro-4-(4-(trifluoromethyl)piperidin-1-yl)phenyl)cyclohexane-1,4-diamine]",0.1 to 100
7,"CCN1CCC(Nc2ccc(C3CCCCC3)cc2)CC1 [Compound 72, N-(4-cyclohexylphenyl)-1-ethylpiperidin-4-amine]",0.1 to 100
8,"CC1(C)CCC(c2ccc(NC3CCC(N)CC3)cc2)CC1 (stereo not shown) [Compound 74, N1-(4-(4,4-dimethylcyclohexyl)phenyl)cyclohexane-1,4-diamine]",0.1 to 100
9,COCC1CCC(Nc2ccc(C3CCC(C)(C)CC3)cc2)CC1 (stereo not shown) [Compound 75],100 to 1000
10,"CN1CCC(NC(=O)C2CCC(Nc3ccc(C4CCC(C)(C)CC4)cc3)CC2)CC1 (stereo not shown) [Compound 77, 4-((4-(4,4-dimethylcyclohexyl)phenyl)amino)-N-(1-methylpiperidin-4-yl)cyclohexane-1-carbox amide]",0.1 to 100
11,"CC1(C)CCC(c2ccc(NC3CCC(CN)CC3)cc2)CC1 (stereo not shown) [Compound 78, N-(4-(aminomethyl)cyclohexyl)-4-(4,4-dimethylcyclohexyl)aniline]",0.1 to 100
12,"COCCOCCNc1ccc(C2CCC(C)(C)CC2)cc1 [Compound 79, 4-(4,4-dimethylcyclohexyl)-N-(2-(2-methoxyethoxy)ethyl)aniline]",100 to 1000
13,"Cc1nc(C2CCC(C)(C)CC2)ccc1NC1CCC(CN)CC1 (stereo not shown) [Compound 80, N-(4-(aminomethyl)cyclohexyl)-6-(4,4-dimethylcyclohexyl)-2-methylpyridin-3-amine]",100 to 1000
14,"CC1(C)CCC(c2ccc(NC3CCC(CN)C3)cc2)CC1 (stereo not shown) [Compound 83, N-(3-(aminomethyl)cyclopentyl)-4-(4,4-dimethylcyclohexyl)aniline]",0.1 to 100
15,"CC1(C)CCC(c2ccc(NC3CC(CN)C3)cc2)CC1 (stereo not shown) [Compound 84, N-(3-(aminomethyl)cyclobutyl)-4-(4,4-dimethylcyclohexyl)aniline]",0.1 to 100
16,"CC1(C)CCC(c2ccc(NC3CCCC(CN)CC3)cc2)CC1 (stereo not shown) [Compound 85, 4-(aminomethyl)-N-(4-(4,4-dimethylcyclohexyl)phenyl)cycloheptan-1-amine]",0.1 to 100
17,"CNCC1CCC(Nc2ccc(C3CCC(C)(C)CC3)cc2)CC1 (stereo not shown) [Compound 86, 4-(4,4-dimethylcyclohexyl)-N-(4-((methylamino)methyl)cyclohexyl)aniline]",0.1 to 100
